65 compounds from patent publication US11613538B2, “Method of inhibiting or reducing a viral infection” (PTC Therapeutics, Inc., priority 2009, dated 2023) can be followed below.

The test has as its system hypoxia-induced VEGF production in HeLa cells. As to the kind of experiment: cells. Particulars: Homo sapiens, HeLa. Type of test: cell-based, human.

pEC50: −log10 of the molar value. Where only a bound is given, the exact number is not on record here.

As to `CCOC(=O)N1CCc2c([nH]c3ccc(Cl)cc23)C1c1cccc(OCCCn2ccnn2)c1` (centres unmarked) [Compound 1124], the pEC50 was 6.00 to 6.70.

In turn, `COc1cc(C2c3[nH]c4ccc(Cl)cc4c3CCN2C(=O)Oc2ccccc2)ccc1OCCCN1CCOCC1` (centres unmarked) [Compound 1130] gave a pEC50 of 7.40 to 8.10.

Consider `COc1ccc(OC(=O)N2CCc3c([nH]c4ccc(Cl)cc34)C2c2ccc(OCCCN3CCOCC3)c(OC)c2)cc1` (centres unmarked) [Compound 1131], for which the pEC50 was 7.40 to 8.10.

In turn, `COc1cc(C2c3[nH]c4ccc(Cl)cc4c3CCN2C(=O)Oc2ccc(C)cc2)ccc1OCCCN1CCOCC1` (centres unmarked) [Compound 1132] gave a pEC50 of 7.40 to 8.10.

`COc1cc(C2c3[nH]c4ccc(Cl)cc4c3CCN2C(=O)Oc2ccc(F)cc2)ccc1OCCCN1CCOCC1` (centres unmarked) [Compound 1133] showed a pEC50 above 8.10.

Compound `Cc1ccc(C(=O)N2CCc3c([nH]c4ccc(Cl)cc34)C2c2ccc(OCCCn3cncn3)cc2)cc1` (centres unmarked) [Compound 1135] had a pEC50 of 7.40 to 8.10.

As to `O=C(c1ccc(Cl)cc1)N1CCc2c([nH]c3ccc(Cl)cc23)C1c1ccc(OCCCN2CCOCC2)cc1` (centres unmarked) [Compound 1136], the pEC50 was 6.70 to 7.40.

Regarding `O=C(c1ccc(F)cc1)N1CCc2c([nH]c3ccc(Cl)cc23)C1c1ccc(OCCCn2cncn2)cc1` (centres unmarked) [Compound 1138], the pEC50 was 7.40 to 8.10.

Take `O=C(c1ccccc1)N1CCc2c([nH]c3ccc(Cl)cc23)C1c1ccc(OCCCn2cncn2)cc1` (centres unmarked) [Compound 1139]: the pEC50 was 7.40 to 8.10.

The compound `O=C(c1ccccc1)N1CCc2c([nH]c3ccc(Cl)cc23)C1c1ccc(OCCCN2CCOCC2)cc1` (centres unmarked) [Compound 1140] had a pEC50 of 6.70 to 7.40.

`O=C(C1CC1)N1CCc2c([nH]c3ccc(Cl)cc23)C1c1ccc(OCCCN2CCOCC2)cc1` (centres unmarked) [Compound 1141] had a pEC50 of 6.70 to 7.40.

As for `O=C(C1CC1)N1CCc2c([nH]c3ccc(Cl)cc23)C1c1ccc(OCCCn2cncn2)cc1` (centres unmarked) [Compound 1142], the pEC50 was 7.40 to 8.10.

As for `COc1ccc(OC(=O)N2CCc3c([nH]c4ccc(Cl)cc34)C2c2ccc(OCCCn3nccn3)c(OC)c2)cc1` (centres unmarked) [Compound 1146], the pEC50 was 7.40 to 8.10.

As for `COc1cc(C2c3[nH]c4ccc(Cl)cc4c3CCN2C(=O)Oc2ccc(F)cc2)ccc1OCCCn1ccnn1` (centres unmarked) [Compound 1147], the pEC50 was 7.40 to 8.10.

Take `COc1cc(C2c3[nH]c4ccc(Cl)cc4c3CCN2C(=O)Oc2ccc(F)cc2)ccc1OCCCn1nccn1` (centres unmarked) [Compound 1148]: the pEC50 is 7.40 to 8.10.

For the compound `COc1ccc(C2c3[nH]c4ccc(Cl)cc4c3CCN2C(=O)OCCn2nccn2)cc1` (centres unmarked) [Compound 1156], the pEC50 is 7.40 to 8.10.

`COc1ccc(C2c3[nH]c4ccc(Cl)cc4c3CCN2C(=O)OCCn2ccnn2)cc1` (centres unmarked) [Compound 1157] showed a pEC50 of 6.00 to 6.70.

For the compound `COc1ccc(C2c3[nH]c4ccc(Cl)cc4c3CCN2C(=O)OCCn2cncn2)cc1` (centres unmarked) [Compound 1158], the pEC50 is below 6.00.

In turn, `CC1(C)OC[C@H](CCOc2ccc(C3c4[nH]c5ccc(Cl)cc5c4CCN3C(=O)Oc3ccc(Cl)cc3)cc2)O1` (some centres unmarked) [Compound 1162] had a pEC50 above 8.10.

On to `CCOC(=O)N1CCc2c([nH]c3ccc(Cl)cc23)C1c1ccc(OCC[C@H]2COC(C)(C)O2)cc1` (some centres unmarked) [Compound 1163], for which the pEC50 is above 8.10.

`CCCOC(=O)N1CCc2c([nH]c3ccc(Cl)cc23)C1c1ccc(OCC[C@H]2COC(C)(C)O2)cc1` (some centres unmarked) [Compound 1164] gave a pEC50 above 8.10.

`CC(C)COC(=O)N1CCc2c([nH]c3ccc(Cl)cc23)C1c1ccc(OCC[C@H]2COC(C)(C)O2)cc1` (some centres unmarked) [Compound 1165] gave a pEC50 above 8.10.

Take `CC#CCOC(=O)N1CCc2c([nH]c3ccc(Cl)cc23)C1c1ccc(OCC[C@H]2COC(C)(C)O2)cc1` (some centres unmarked) [Compound 1166]: the pEC50 is above 8.10.

The compound `CC(C)(C)COC(=O)N1CCc2c([nH]c3ccc(Cl)cc23)C1c1ccc(OCC[C@H]2COC(C)(C)O2)cc1` (some centres unmarked) [Compound 1167] had a pEC50 above 8.10.

As for `O=C(Oc1ccc(Cl)cc1)N1CCc2c([nH]c3ccc(Cl)cc23)C1c1ccc(OCC[C@H](O)CO)cc1` (some centres unmarked) [Compound 1172], the pEC50 is above 8.10.

Compound `CCOC(=O)N1CCc2c([nH]c3ccc(Cl)cc23)C1c1ccc(OCC[C@H](O)CO)cc1` (some centres unmarked) [Compound 1173] had a pEC50 above 8.10.

On to `CCCOC(=O)N1CCc2c([nH]c3ccc(Cl)cc23)C1c1ccc(OCC[C@H](O)CO)cc1` (some centres unmarked) [Compound 1174], for which the pEC50 is 7.40 to 8.10.

As to `CC(C)COC(=O)N1CCc2c([nH]c3ccc(Cl)cc23)C1c1ccc(OCC[C@H](O)CO)cc1` (some centres unmarked) [Compound 1175], the pEC50 was 7.40 to 8.10.

With `CC#CCOC(=O)N1CCc2c([nH]c3ccc(Cl)cc23)C1c1ccc(OCC[C@H](O)CO)cc1` (some centres unmarked) [Compound 1176], the pEC50 was above 8.10.

As to `CC(C)(C)COC(=O)N1CCc2c([nH]c3ccc(Cl)cc23)C1c1ccc(OCC[C@H](O)CO)cc1` (some centres unmarked) [Compound 1177], the pEC50 is above 8.10.

In turn, `O=C(Oc1ccc(Cl)cc1)N1CCc2c([nH]c3ccc(Cl)cc23)C1c1ccc(OCCCNCCO)cc1` (centres unmarked) [Compound 1183] had a pEC50 above 8.10.

`O=C(Oc1ccc(Cl)cc1)N1CCc2c([nH]c3ccc(Cl)cc23)C1c1ccc(OCCCN(CCO)CCO)cc1` (centres unmarked) [Compound 1184]: the pEC50 was above 8.10.

`CC(C)(C)OC(=O)N1CCc2c([nH]c3ccc(Cl)cc23)C1c1ccc(OCCCn2ccnn2)cc1` (centres unmarked) [Compound 1185] had a pEC50 above 8.10.

For the compound `CC(C)(C)OC(=O)N1CCc2c([nH]c3ccc(Cl)cc23)C1c1ccc(OCCCn2nccn2)cc1` (centres unmarked) [Compound 1186], the pEC50 was above 8.10.

In turn, `CC(C)(C)OC(=O)N1CCc2c([nH]c3ccc(Cl)cc23)C1c1ccc(OCCCn2cnnc2)cc1` (centres unmarked) [Compound 1187] showed a pEC50 above 8.10.

The compound `CC(C)(C)OC(=O)N1CCc2c([nH]c3ccc(Cl)cc23)C1c1ccc(OCCCn2cncn2)cc1` (centres unmarked) [Compound 1188] showed a pEC50 above 8.10.

`CC(C)(C)OC(=O)N1CCc2c([nH]c3ccc(Cl)cc23)C1c1ccc(OCCCCl)cc1` (centres unmarked) [Compound 1189]: the pEC50 was above 8.10.

In the case of `Cc1ccc(C(=O)N2CCc3c([nH]c4ccc(Cl)cc34)C2c2ccc(OCCCN3CCOCC3)cc2)cc1` (centres unmarked) [Compound 1190], the pEC50 was 6.70 to 7.40.

The compound `COc1ccc(C(=O)N2CCc3c([nH]c4ccc(Cl)cc34)C2c2ccc(OCCCn3cncn3)cc2)cc1` (centres unmarked) [Compound 1191] gave a pEC50 of 6.70 to 7.40.

Regarding `CC(C)C(=O)N1CCc2c([nH]c3ccc(Cl)cc23)C1c1ccc(OCCCN2CCOCC2)cc1` (centres unmarked) [Compound 1193], the pEC50 is 6.70 to 7.40.

`CCOC(=O)N1CCc2c([nH]c3ccc(Cl)cc23)C1c1ccc(OC)c(F)c1` (centres unmarked) [Compound 1198] showed a pEC50 of 7.40 to 8.10.

`Clc1ccc2[nH]c3c(c2c1)CCN(c1ncccn1)C3c1ccc(OCCCn2ccnn2)cc1` (centres unmarked) [Compound 1200] had a pEC50 above 8.10.

Compound `Clc1ccc2[nH]c3c(c2c1)CCN(c1ncccn1)C3c1ccc(OCCCn2cncn2)cc1` (centres unmarked) [Compound 1201] showed a pEC50 above 8.10.

Consider `CCOC(=O)N1CCc2c([nH]c3ccc(Cl)cc23)[C@@H]1c1ccc(OCC[C@H]2COC(C)(C)O2)cc1` [Compound 1202], for which the pEC50 was above 8.10.

In turn, `CC1(C)OC[C@H](CCOc2ccc([C@H]3c4[nH]c5ccc(Cl)cc5c4CCN3C(=O)Oc3ccc(Cl)cc3)cc2)O1` [Compound 1203] showed a pEC50 above 8.10.

In turn, `CCOC(=O)N1CCc2c([nH]c3ccc(Cl)cc23)[C@@H]1c1ccc(OCC2COC(C)(C)OC2)cc1` [Compound 1206] had a pEC50 above 8.10.

For the compound `CCOC(=O)N1CCc2c([nH]c3ccc(Cl)cc23)C1c1ccc(OCC(CO)CO)cc1` (centres unmarked) [Compound 1208], the pEC50 is 7.40 to 8.10.

In turn, `O=C(Oc1ccc(Cl)cc1)N1CCc2c([nH]c3ccc(Cl)cc23)[C@@H]1c1ccc(OCC(CO)CO)cc1` [Compound 1209] had a pEC50 above 8.10.

Compound `CCOC(=O)N1CCc2c([nH]c3ccc(Cl)cc23)C1c1ccc(OCC(N)=O)cc1` (centres unmarked) [Compound 1210] had a pEC50 of 7.40 to 8.10.

Turning to `NC(=O)COc1ccc(C2c3[nH]c4ccc(Cl)cc4c3CCN2C(=O)OCCF)cc1` (centres unmarked) [Compound 1211], the pEC50 is 7.40 to 8.10.

As to `CC#CCOC(=O)N1CCc2c([nH]c3ccc(Cl)cc23)C1c1ccc(OCC(N)=O)cc1` (centres unmarked) [Compound 1212], the pEC50 is 7.40 to 8.10.

The compound `NC(=O)COc1ccc(C2c3[nH]c4ccc(Cl)cc4c3CCN2C(=O)Oc2ccc(Br)cc2)cc1` (centres unmarked) [Compound 1214] gave a negative-log EC50 (pEC50) of 7.40 to 8.10.

As to `NC(=O)COc1ccc(C2c3[nH]c4ccc(Cl)cc4c3CCN2C(=O)Oc2ccc(F)cc2)cc1` (centres unmarked) [Compound 1215], the pEC50 is 7.40 to 8.10.

As to `C=CCOc1ccc([C@H]2c3[nH]c4ccc(Cl)cc4c3CCN2C(=O)OCC)cc1` [Compound 1217], the pEC50 is above 8.10.

In turn, `CCOC(=O)N1CCc2c([nH]c3ccc(Cl)cc23)[C@@H]1c1ccc(O)cc1` [Compound 1218] gave a pEC50 of 7.40 to 8.10.

For the compound `Clc1ccc2[nH]c3c(c2c1)CCNC3c1ccc(OC2CCOCC2)cc1` (centres unmarked) [Compound 1220], the pEC50 is 6.70 to 7.40.

`CCOC(=O)N1CCc2c([nH]c3ccc(Cl)cc23)[C@@H]1c1ccc(OC[C@H](O)CO)cc1` [Compound 1221] had a pEC50 above 8.10.

Compound `CCOC(=O)N1CCc2c([nH]c3ccc(Cl)cc23)[C@@H]1c1ccc(OC[C@@H](O)CO)cc1` [Compound 1222] had a pEC50 above 8.10.

The compound `CCOC(=O)N1CCc2c([nH]c3ccc(Cl)cc23)[C@@H]1c1ccc(OC[C@H]2COC(C)(C)O2)cc1` [Compound 1226] gave a pEC50 above 8.10.

With `CC1(C)OC[C@H](COc2ccc([C@H]3c4[nH]c5ccc(Cl)cc5c4CCN3C(=O)Oc3ccc(Cl)cc3)cc2)O1` [Compound 1227], the pEC50 was above 8.10.

Turning to `CCOC(COc1ccc(C2c3[nH]c4ccc(Cl)cc4c3CCN2C(=O)Oc2ccc(Cl)cc2)cc1)OCC` (centres unmarked) [Compound 1228], the pEC50 is above 8.10.

Take `O=C(Oc1ccc(Cl)cc1)N1CCc2c([nH]c3ccc(Cl)cc23)C1c1ccc(OC(CO)CO)cc1` (centres unmarked) [Compound 1231]: the pEC50 was 7.40 to 8.10.

As to `CC#CCOC(=O)N1CCc2c([nH]c3ccc(Cl)cc23)C1c1ccc(OC)c(F)c1` (centres unmarked) [Compound 1232], the pEC50 is 6.70 to 7.40.

`CCCN(CCC)CCCOc1ccc([C@H]2c3[nH]c4ccc(Cl)cc4c3CCN2C(=O)OCC)cc1` [Compound 1233]: the pEC50 was 7.40 to 8.10.

Consider `CCCN(CCC)CCCOc1ccc([C@H]2c3[nH]c4ccc(Cl)cc4c3CCN2C(=O)Oc2ccc(Cl)cc2)cc1` [Compound 1234], for which the pEC50 was above 8.10.

What is called pEC50 is the EC50 on a negative log10 scale, so that one unit is a factor of ten. Lower therefore signals a high EC50.
